Where “and” joins values, the source holds several entries; their conditions need not be identical. Identical values can stand only once. Toxic doses and inconclusive results are not listed. Square brackets hold non-standard residues; d marks the D form. Peptide text beside a SMILES is read from it. Ac5c = NC1(C(=O)O)CCCC1
Tested on: L1210 leukemia ip in BDF1 mice, survival T/C
Experiment: NCI In Vivo Anticancer Drug Screen. Data for tumor model L1210 Leukemia (intraperitoneal) in B6D2F1 (BDF1) mice
Settings: endpoint: mean survival time, higher = longer survival
Method in brief: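 In this screen, tumor-bearing mice given compound are compared to those given vehicle, and their survival values are reported as a treated-to-control quotient.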

[1] = dose: 100.0 mg/kg/injection, schedule: Q04DX003 (ip), vehicle: Klucel (hydroxypropylcellulose) (HPC)
[2] = dose: 200.0 mg/kg/injection, schedule: Q04DX003 (ip), vehicle: Klucel (hydroxypropylcellulose) (HPC)
[3] = dose: 400.0 mg/kg/injection, schedule: Q04DX003 (ip), vehicle: Klucel (hydroxypropylcellulose) (HPC)
[4] = dose: 25.0 mg/kg/injection, schedule: Q01DX009 (ip), vehicle: Klucel (hydroxypropylcellulose) (HPC)
[5] = dose: 50.0 mg/kg/injection, schedule: Q01DX009 (ip), vehicle: Klucel (hydroxypropylcellulose) (HPC)
[6] = dose: 100.0 mg/kg/injection, schedule: Q01DX009 (ip), vehicle: Klucel (hydroxypropylcellulose) (HPC)
[7] = dose: 100.0 mg/kg/injection, schedule: Q04DX002 (ip), vehicle: Klucel (hydroxypropylcellulose) (HPC)
[8] = dose: 200.0 mg/kg/injection, schedule: Q04DX002 (ip), vehicle: Klucel (hydroxypropylcellulose) (HPC)
[9] = dose: 100.0 mg/kg/injection, schedule: Q04DX002 (ip), vehicle: saline with Tween-80
[10] = dose: 200.0 mg/kg/injection, schedule: Q04DX002 (ip), vehicle: saline with Tween-80
[11] = dose: 400.0 mg/kg/injection, schedule: Q04DX002 (ip), vehicle: saline with Tween-80
[12] = dose: 100.0 mg/kg/injection, schedule: Q04DX003 (ip), vehicle: saline with Tween-80
[13] = dose: 200.0 mg/kg/injection, schedule: Q04DX003 (ip), vehicle: saline with Tween-80
[14] = dose: 400.0 mg/kg/injection, schedule: Q04DX003 (ip), vehicle: saline with Tween-80

CCN(CCCCOC(=O)c1ccc(OC)c(OC)c1)C(C)Cc1ccc(OC)cc1 (stereo not drawn)
T/C (dose: 9.37 mg/kg/injection, schedule: Q01DX009 (ip), vehicle: saline): 95 % of control | T/C (dose: 18.75 mg/kg/injection, schedule: Q01DX009 (ip), vehicle: saline): 87 % of control | T/C (dose: 18.75 mg/kg/injection, schedule: Q04DX003 (ip), vehicle: saline): 114 % of control | T/C (dose: 37.5 mg/kg/injection, schedule: Q01DX009 (ip), vehicle: saline): 101 % of control | T/C (dose: 37.5 mg/kg/injection, schedule: Q04DX003 (ip), vehicle: saline): 100 % of control | T/C (dose: 75.0 mg/kg/injection, schedule: Q01DX009 (ip), vehicle: saline): 108 % of control | T/C (dose: 75.0 mg/kg/injection, schedule: Q04DX003 (ip), vehicle: saline): 100 % of control | T/C (dose: 150.0 mg/kg/injection, schedule: Q04DX003 (ip), vehicle: saline): 105 % of control

O=C1NC(=O)C(c2ccc(Cl)cc2)(c2ccccc2Cl)N1 (stereo not drawn)
T/C [1]: 95 % of control | T/C [2]: 102 % of control | T/C [3]: 98 % of control

CCCCCCCCCCCCCCCCSCCCCCCCCCCCSCCCCCCCCCCCCCCCC
T/C (dose: 100.0 mg/kg/injection, schedule: Q01DX001 (ip), vehicle: Klucel (hydroxypropylcellulose) (HPC)): 89 % of control | T/C (dose: 200.0 mg/kg/injection, schedule: Q01DX001 (ip), vehicle: Klucel (hydroxypropylcellulose) (HPC)): 94 % of control | T/C (dose: 400.0 mg/kg/injection, schedule: Q01DX001 (ip), vehicle: Klucel (hydroxypropylcellulose) (HPC)): 102 % of control

CCc1ccc(NC(=O)c2c(Br)c(Br)c(Br)c(Br)c2C(=O)O)cc1
T/C [4]: 96 % of control | T/C [5]: 104 % of control | T/C [6]: 101 % of control and 107 % of control

Cc1nc(N)c(N)nc1C
T/C (dose: 12.5 mg/kg/injection, schedule: Q01DX009 (ip), vehicle: saline with Tween-80): 112 % of control | T/C (dose: 25.0 mg/kg/injection, schedule: Q01DX009 (ip), vehicle: saline with Tween-80): 101 % of control | T/C (dose: 25.0 mg/kg/injection, schedule: Q04DX003 (ip), vehicle: saline with Tween-80): 106 % of control | T/C (dose: 50.0 mg/kg/injection, schedule: Q01DX009 (ip), vehicle: saline with Tween-80): 101 % of control | T/C (dose: 50.0 mg/kg/injection, schedule: Q04DX003 (ip), vehicle: saline with Tween-80): 101 % of control

CC/C(=C\c1cccc([N+](=O)[O-])c1)C(=O)O
T/C [6]: 97 % of control | T/C [1]: 96 % of control | T/C (dose: 200.0 mg/kg/injection, schedule: Q01DX009 (ip), vehicle: Klucel (hydroxypropylcellulose) (HPC)): 92 % of control | T/C [2]: 95 % of control | T/C (dose: 400.0 mg/kg/injection, schedule: Q01DX009 (ip), vehicle: Klucel (hydroxypropylcellulose) (HPC)): 100 % of control | T/C [3]: 95 % of control

CC(=O)CC(=O)C(F)(F)F.CC(=O)CC(=O)C(F)(F)F.[Mn]
T/C [4]: 106 % of control | T/C (dose: 50.0 mg/kg/injection, schedule: Q01DX005 (ip), vehicle: Klucel (hydroxypropylcellulose) (HPC)): 97 % of control | T/C [5]: 106 % of control | T/C (dose: 100.0 mg/kg/injection, schedule: Q01DX005 (ip), vehicle: Klucel (hydroxypropylcellulose) (HPC)): 93 % of control | T/C [6]: 106 % of control | T/C [7]: 104 % of control | T/C [8]: 96 % of control

CC(C)Nc1ccc(O)cc1
T/C [7]: 106 % of control | T/C [8]: 95 % of control

CCOC(=O)C1CC1(C)c1ccccc1 (stereo not drawn)
T/C [9]: 97 % of control | T/C [10]: 93 % of control | T/C [11]: 90 % of control

CCOC(=O)CC(=O)C1CCC2C3CC=C4CC(OC(=O)OCC)CCC4(C)C3CCC12C (stereo not drawn)
T/C (dose: 25.0 mg/kg/injection, schedule: Q01DX001 (sc), vehicle: olive oil, sesame oil, peanut oil): 104 % of control | T/C (dose: 50.0 mg/kg/injection, schedule: Q01DX001 (sc), vehicle: olive oil, sesame oil, peanut oil): 107 % of control | T/C (dose: 100.0 mg/kg/injection, schedule: Q01DX001 (sc), vehicle: olive oil, sesame oil, peanut oil): 93 % of control

Cc1ccc(S(=O)(=O)OCC2OCC(O)C(O)C2O)cc1 (stereo not drawn)
T/C [12]: 86 % of control | T/C [13]: 86 % of control | T/C [14]: 86 % of control

CSc1ccc(NC(=O)OCC2CC3C=CC2C3)cc1 (stereo not drawn)
T/C (dose: 100.0 mg/kg/injection, schedule: Q01DX009 (ip), vehicle: saline with Tween-80): 96 % of control and 92 % of control | T/C [9]: 89 % of control | T/C [12]: 95 % of control | T/C (dose: 200.0 mg/kg/injection, schedule: Q01DX009 (ip), vehicle: saline with Tween-80): 94 % of control and 110 % of control | T/C [10]: 89 % of control | T/C [13]: 93 % of control | T/C (dose: 400.0 mg/kg/injection, schedule: Q01DX009 (ip), vehicle: saline with Tween-80): 94 % of control and 100 % of control | T/C [11]: 111 % of control | T/C [14]: 98 % of control

c1ccc2c(c1)oc1cc3ccncc3cc12
T/C (dose: 100.0 mg/kg/injection, schedule: Q01DX001 (ip), vehicle: saline): 96 % of control | T/C (dose: 200.0 mg/kg/injection, schedule: Q01DX001 (ip), vehicle: saline): 94 % of control | T/C (dose: 400.0 mg/kg/injection, schedule: Q01DX001 (ip), vehicle: saline): 102 % of control

NCC(=O)NC1(C(=O)O)CCCC1 (H-Gly-[Ac5c]-OH)
T/C (dose: 16.0 mg/kg/injection, schedule: Q01DX Z (ip), vehicle: carboxymethylcellulose (CMC)): 104 % of control | T/C (dose: 24.0 mg/kg/injection, schedule: Q01DX Z (ip), vehicle: carboxymethylcellulose (CMC)): 109 % of control | T/C (dose: 30.0 mg/kg/injection, schedule: Q01DX Z (ip), vehicle: other): 103 % of control | T/C (dose: 36.0 mg/kg/injection, schedule: Q01DX Z (ip), vehicle: carboxymethylcellulose (CMC)): 118 % of control | T/C (dose: 54.0 mg/kg/injection, schedule: Q01DX017 (ip), vehicle: saline): 157 % of control | T/C (dose: 54.0 mg/kg/injection, schedule: Q01DX Z (ip), vehicle: saline): 121 % of control | T/C (dose: 66.0 mg/kg/injection, schedule: Q01DX Z (ip), vehicle: saline): 115 % of control | T/C (dose: 100.0 mg/kg/injection, schedule: Q04DX003 (ip), vehicle: saline): 103 % of control | T/C (dose: 120.0 mg/kg/injection, schedule: Q01DX Z (ip), vehicle: saline): 152 % of control | T/C (dose: 150.0 mg/kg/injection, schedule: Q01DX Z (ip), vehicle: saline): 156 % of control | T/C (dose: 180.0 mg/kg/injection, schedule: Q01DX Z (ip), vehicle: carboxymethylcellulose (CMC)): 105 % of control | T/C (dose: 200.0 mg/kg/injection, schedule: Q04DX003 (ip), vehicle: saline): 124 % of control | T/C (dose: 225.0 mg/kg/injection, schedule: Q01DX Z (ip), vehicle: saline): 115 % of control | T/C (dose: 240.0 mg/kg/injection, schedule: Q01DX Z (ip), vehicle: other): 124 % of control | T/C (dose: 400.0 mg/kg/injection, schedule: Q04DX003 (ip), vehicle: saline): 155 % of control | T/C (dose: 480.0 mg/kg/injection, schedule: Q01DX Z (ip), vehicle: other): 88 % of control

COc1ccc([N+](=O)[O-])cc1NC(=O)Nc1cccc(F)c1
T/C (dose: 100.0 mg/kg/injection, schedule: Q01DX009 (ip), vehicle: gum acacia): 90 % of control | T/C (dose: 200.0 mg/kg/injection, schedule: Q01DX009 (ip), vehicle: gum acacia): 95 % of control | T/C (dose: 400.0 mg/kg/injection, schedule: Q01DX009 (ip), vehicle: gum acacia): 90 % of control

CC(=O)Nc1ccc(/C=C(\C#N)c2ccc(C)cc2)cc1
T/C [12]: 87 % of control | T/C [13]: 90 % of control | T/C [14]: 101 % of control

ClC(Cl)[P+](N1CCCCC1)(N1CCCCC1)N1CCCCC1
T/C (dose: 0.75 mg/kg/injection, schedule: Q04DX003 (ip), vehicle: Klucel (hydroxypropylcellulose) (HPC)): 115 % of control | T/C (dose: 1.5 mg/kg/injection, schedule: Q04DX003 (ip), vehicle: Klucel (hydroxypropylcellulose) (HPC)): 118 % of control | T/C (dose: 3.0 mg/kg/injection, schedule: Q04DX003 (ip), vehicle: Klucel (hydroxypropylcellulose) (HPC)): 93 % of control and 118 % of control
